The values that follow are results of earlier work, collected in patent US8895055B2, “Telodendrimer nanodiscs without apolipoprotein” (The Regents of the University of California, priority 2011, dated 2014).

With `C[C@@H]1[C@H](O)[C@@H](C)/C=C/C=C/C=C/C=C/C=C/C=C/C=C/[C@H](O[C@@H]2O[C@H](C)[C@@H](O)[C@H](N)[C@@H]2O)C[C@@H]2O[C@](O)(C[C@@H](O)C[C@@H](O)[C@H](O)CC[C@@H](O)C[C@@H](O)CC(=O)O[C@H]1C)C[C@H](O)[C@H]2C(=O)O` [Amphotericin B], the solubility in water entry is on record as “poorly soluble in water”.
